Experiments:
WEE1 = target: T1, WEE1 (Homo sapiens, UniProt P30291+Q96SW2); experiment: Western-blot assay of substrate protein degradation in hPBMCs, WEE1; type: cell-based; settings: 24 hours of compound treatment, compounds tested at 50 nM and 500 nM (concentration of the table not stated)
T1 construct: endogenous in cells; host or cells: hPBMCs (Milecell Biotechnologies)

IKZF1 = target: T2, IKZF1 (Homo sapiens, UniProt Q13422+Q96SW2); experiment: Western-blot assay of substrate protein degradation in hPBMCs, IKZF1; type: cell-based; settings: 24 hours of compound treatment, compounds tested at 50 nM and 500 nM (concentration of the table not stated)
T2 construct: endogenous in cells; host or cells: hPBMCs (Milecell Biotechnologies)

IKZF2 = target: T3, IKZF2 (Homo sapiens, UniProt Q96SW2+Q9UKS7); experiment: Western-blot assay of substrate protein degradation in hPBMCs, IKZF2; type: cell-based; settings: 24 hours of compound treatment, compounds tested at 50 nM and 500 nM (concentration of the table not stated)
T3 construct: endogenous in cells; host or cells: hPBMCs (Milecell Biotechnologies)

IKZF3 = target: T4, IKZF3 (Homo sapiens, UniProt Q96SW2+Q9UKT9); experiment: Western-blot assay of substrate protein degradation in hPBMCs, IKZF3; type: cell-based; settings: 24 hours of compound treatment, compounds tested at 50 nM and 500 nM (concentration of the table not stated)
T4 construct: endogenous in cells; host or cells: hPBMCs (Milecell Biotechnologies)

CK1α = target: T5, CK1α (Homo sapiens, UniProt P48729+Q96SW2); experiment: Western-blot assay of substrate protein degradation in hPBMCs, CK1α; type: cell-based; settings: 24 hours of compound treatment, compounds tested at 50 nM and 500 nM (concentration of the table not stated)
T5 construct: endogenous in cells; host or cells: hPBMCs (Milecell Biotechnologies)

GSPT1 = target: T6, GSPT1 (Homo sapiens, UniProt P15170+Q96SW2); experiment: Western-blot assay of substrate protein degradation in hPBMCs, GSPT1; type: cell-based; settings: 24 hours of compound treatment, compounds tested at 50 nM and 500 nM (concentration of the table not stated)
T6 construct: endogenous in cells; host or cells: hPBMCs (Milecell Biotechnologies)

[1] = target: T7, human Cereblon WT GST-tagged protein (Homo sapiens, UniProt Q96SW2); experiment: CRBN-binding affinity by HTRF (CEREBLON BINDING kit); settings: HTRF inhibitory activity, CEREBLON BINDING kit; read-out: HTRF IC50
T7 construct: purchased CISBIO 64BDCRBNPEH

TMD8 = experiment: Tumor cell proliferation inhibition (CellTiter-Meiluncell Luminescent Cell Viability Assay), TMD8; settings: Homo sapiens, TMD8, 96 h, read-out: inhibitory activity (IC50, nM) against tumor cells proliferation, TMD8
[2] = tested on: Human acute T lymphocytic leukemia cells (Molt-4); experiment: Tumor cell proliferation inhibition (CellTiter-Meiluncell Luminescent Cell Viability Assay), Molt-4; settings: MOLT-4, 96 h, read-out: inhibitory activity (IC50, nM) against tumor cells proliferation, Molt 4
NCI-H1975 = experiment: Tumor cell proliferation inhibition (CellTiter-Meiluncell Luminescent Cell Viability Assay), NCI-H1975; settings: Homo sapiens, NCI-H1975, 96 h, read-out: inhibitory activity (IC50, nM) against tumor cells proliferation, H1975
[3] = tested on: Human breast cancer cells (MDA-MB-231); experiment: Tumor cell proliferation inhibition (CellTiter-Meiluncell Luminescent Cell Viability Assay), MDA-MB-231; settings: MDA-MB-231, 96 h, read-out: inhibitory activity (IC50, nM) against tumor cells proliferation, MDA-MB-231

T1 sequence (P30291 whole entry): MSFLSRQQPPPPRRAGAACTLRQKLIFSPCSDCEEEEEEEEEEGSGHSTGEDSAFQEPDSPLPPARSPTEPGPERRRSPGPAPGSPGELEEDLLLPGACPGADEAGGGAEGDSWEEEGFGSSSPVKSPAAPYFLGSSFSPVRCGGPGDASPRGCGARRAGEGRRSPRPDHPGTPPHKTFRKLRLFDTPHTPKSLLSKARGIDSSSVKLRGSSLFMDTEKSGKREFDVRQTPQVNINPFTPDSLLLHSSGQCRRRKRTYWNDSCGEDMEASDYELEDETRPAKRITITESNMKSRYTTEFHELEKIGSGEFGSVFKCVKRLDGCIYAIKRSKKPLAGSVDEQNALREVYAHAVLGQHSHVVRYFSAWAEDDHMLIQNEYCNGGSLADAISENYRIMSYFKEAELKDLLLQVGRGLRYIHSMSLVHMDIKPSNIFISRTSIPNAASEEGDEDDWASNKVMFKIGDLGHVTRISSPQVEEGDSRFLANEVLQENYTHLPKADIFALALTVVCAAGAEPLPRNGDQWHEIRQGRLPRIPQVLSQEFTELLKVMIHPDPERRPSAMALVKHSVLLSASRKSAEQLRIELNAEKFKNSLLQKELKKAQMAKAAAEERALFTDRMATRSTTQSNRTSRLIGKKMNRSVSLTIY
T1 sequence (Q96SW2 whole entry): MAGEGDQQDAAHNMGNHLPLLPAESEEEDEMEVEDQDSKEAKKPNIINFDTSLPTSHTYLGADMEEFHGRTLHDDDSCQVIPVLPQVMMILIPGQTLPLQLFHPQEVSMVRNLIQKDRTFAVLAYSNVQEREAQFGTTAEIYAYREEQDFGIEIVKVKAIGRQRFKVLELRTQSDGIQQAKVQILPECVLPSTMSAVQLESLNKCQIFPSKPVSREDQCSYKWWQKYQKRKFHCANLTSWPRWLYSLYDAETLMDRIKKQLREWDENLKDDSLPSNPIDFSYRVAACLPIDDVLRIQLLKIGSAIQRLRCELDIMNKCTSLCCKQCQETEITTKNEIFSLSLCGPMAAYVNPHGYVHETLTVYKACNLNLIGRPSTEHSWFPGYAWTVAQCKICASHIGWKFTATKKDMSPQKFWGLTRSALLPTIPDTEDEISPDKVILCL
T1 sequence (Q16531 whole entry partner): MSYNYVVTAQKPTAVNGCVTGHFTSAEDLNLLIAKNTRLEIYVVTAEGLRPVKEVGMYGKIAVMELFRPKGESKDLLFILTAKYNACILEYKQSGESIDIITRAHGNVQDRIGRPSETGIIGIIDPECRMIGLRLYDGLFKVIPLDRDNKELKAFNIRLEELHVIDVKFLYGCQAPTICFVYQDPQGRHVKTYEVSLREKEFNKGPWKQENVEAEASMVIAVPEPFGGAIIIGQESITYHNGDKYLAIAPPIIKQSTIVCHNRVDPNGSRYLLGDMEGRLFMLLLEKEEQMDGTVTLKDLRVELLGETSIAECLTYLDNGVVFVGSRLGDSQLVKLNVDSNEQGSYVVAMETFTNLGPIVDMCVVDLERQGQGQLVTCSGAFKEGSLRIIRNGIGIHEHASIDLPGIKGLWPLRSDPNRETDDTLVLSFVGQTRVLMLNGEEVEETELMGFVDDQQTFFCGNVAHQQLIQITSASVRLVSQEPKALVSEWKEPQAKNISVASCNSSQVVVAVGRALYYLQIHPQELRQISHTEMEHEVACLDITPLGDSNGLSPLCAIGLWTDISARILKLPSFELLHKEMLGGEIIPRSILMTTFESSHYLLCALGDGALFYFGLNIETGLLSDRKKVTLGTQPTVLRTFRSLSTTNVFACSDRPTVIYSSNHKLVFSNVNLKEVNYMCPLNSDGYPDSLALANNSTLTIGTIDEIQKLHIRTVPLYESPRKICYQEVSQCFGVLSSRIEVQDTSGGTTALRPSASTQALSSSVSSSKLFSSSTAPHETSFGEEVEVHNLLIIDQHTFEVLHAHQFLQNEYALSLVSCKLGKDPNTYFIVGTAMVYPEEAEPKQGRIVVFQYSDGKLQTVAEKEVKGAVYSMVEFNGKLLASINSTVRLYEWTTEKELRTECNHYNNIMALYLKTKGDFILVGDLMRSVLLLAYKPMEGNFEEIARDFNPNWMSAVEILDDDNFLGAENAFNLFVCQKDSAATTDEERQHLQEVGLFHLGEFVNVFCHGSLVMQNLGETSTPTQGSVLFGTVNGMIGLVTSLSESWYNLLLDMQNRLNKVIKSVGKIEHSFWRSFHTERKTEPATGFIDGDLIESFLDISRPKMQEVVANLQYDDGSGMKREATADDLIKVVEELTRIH
T7 sequence (Q96SW2 whole entry): as the sequence (Q96SW2 whole entry) above
T5 sequence (P48729 whole entry): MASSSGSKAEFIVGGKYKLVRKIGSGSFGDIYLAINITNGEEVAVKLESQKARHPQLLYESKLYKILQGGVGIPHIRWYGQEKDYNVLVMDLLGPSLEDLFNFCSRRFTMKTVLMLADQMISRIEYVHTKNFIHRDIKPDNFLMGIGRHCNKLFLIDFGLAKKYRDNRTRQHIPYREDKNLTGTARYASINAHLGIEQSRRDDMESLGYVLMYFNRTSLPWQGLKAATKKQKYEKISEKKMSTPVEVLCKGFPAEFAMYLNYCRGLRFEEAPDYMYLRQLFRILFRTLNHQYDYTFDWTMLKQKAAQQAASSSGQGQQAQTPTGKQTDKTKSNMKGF
T5 sequence (Q96SW2 whole entry): as the sequence (Q96SW2 whole entry) above
T5 sequence (Q16531 whole entry partner): as the sequence (Q16531 whole entry partner) above
T6 sequence (P15170 whole entry): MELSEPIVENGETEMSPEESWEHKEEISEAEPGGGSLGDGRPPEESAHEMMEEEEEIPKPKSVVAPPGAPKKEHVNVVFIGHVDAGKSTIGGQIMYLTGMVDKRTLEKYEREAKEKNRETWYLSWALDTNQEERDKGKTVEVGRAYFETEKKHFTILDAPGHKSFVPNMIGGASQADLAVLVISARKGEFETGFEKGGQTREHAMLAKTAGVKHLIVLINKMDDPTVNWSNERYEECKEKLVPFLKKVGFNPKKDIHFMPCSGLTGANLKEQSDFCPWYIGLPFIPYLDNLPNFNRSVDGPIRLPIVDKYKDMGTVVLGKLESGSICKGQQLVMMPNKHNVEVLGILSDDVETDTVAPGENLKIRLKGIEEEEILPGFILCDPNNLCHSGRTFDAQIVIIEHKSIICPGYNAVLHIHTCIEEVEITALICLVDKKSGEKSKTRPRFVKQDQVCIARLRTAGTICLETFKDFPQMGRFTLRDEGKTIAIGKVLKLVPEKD
T6 sequence (Q96SW2 whole entry): as the sequence (Q96SW2 whole entry) above
T6 sequence (Q16531 whole entry partner): as the sequence (Q16531 whole entry partner) above
T3 sequence (Q9UKS7 whole entry): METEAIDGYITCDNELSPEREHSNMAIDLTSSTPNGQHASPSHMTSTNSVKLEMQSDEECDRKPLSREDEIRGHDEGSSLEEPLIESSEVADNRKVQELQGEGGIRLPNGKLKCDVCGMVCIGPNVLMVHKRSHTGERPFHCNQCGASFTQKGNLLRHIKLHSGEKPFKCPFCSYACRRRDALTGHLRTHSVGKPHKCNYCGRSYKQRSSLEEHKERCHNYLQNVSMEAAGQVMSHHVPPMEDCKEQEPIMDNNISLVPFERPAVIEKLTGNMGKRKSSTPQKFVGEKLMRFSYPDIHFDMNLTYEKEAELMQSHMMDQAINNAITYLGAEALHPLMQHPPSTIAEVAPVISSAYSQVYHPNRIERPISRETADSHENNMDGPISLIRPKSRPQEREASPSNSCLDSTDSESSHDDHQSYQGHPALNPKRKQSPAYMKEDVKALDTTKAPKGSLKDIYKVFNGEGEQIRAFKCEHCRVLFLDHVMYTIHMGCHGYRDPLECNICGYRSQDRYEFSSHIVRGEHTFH
T3 sequence (Q96SW2 whole entry): as the sequence (Q96SW2 whole entry) above
T3 sequence (Q16531 whole entry partner): as the sequence (Q16531 whole entry partner) above
T4 sequence (Q9UKT9 whole entry): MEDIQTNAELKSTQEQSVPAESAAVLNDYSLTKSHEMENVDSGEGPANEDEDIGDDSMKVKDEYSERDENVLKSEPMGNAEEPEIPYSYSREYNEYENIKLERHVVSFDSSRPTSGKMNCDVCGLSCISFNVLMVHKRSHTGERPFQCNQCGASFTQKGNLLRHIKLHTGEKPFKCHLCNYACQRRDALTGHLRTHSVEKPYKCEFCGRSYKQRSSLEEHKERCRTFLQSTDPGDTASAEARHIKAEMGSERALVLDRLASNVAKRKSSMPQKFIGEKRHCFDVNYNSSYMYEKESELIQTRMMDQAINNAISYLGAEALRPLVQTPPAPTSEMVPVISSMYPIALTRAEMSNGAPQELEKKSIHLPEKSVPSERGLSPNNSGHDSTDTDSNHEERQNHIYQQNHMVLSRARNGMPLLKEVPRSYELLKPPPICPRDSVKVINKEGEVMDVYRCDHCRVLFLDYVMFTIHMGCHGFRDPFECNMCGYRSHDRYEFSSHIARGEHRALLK
T4 sequence (Q96SW2 whole entry): as the sequence (Q96SW2 whole entry) above
T4 sequence (Q16531 whole entry partner): as the sequence (Q16531 whole entry partner) above

| SMILES | Weel substrate protein remaining % (WEE1) | IKZF 1 substrate protein remaining % (IKZF1) | IKZF2 substrate protein remaining % (IKZF2) | IKZF3 substrate protein remaining % (IKZF3) | CK1a substrate protein remaining % (CK1α) | GSPT1 substrate protein remaining % (GSPT1) | IC50 [1] | IC50 (TMD8) | IC50 [2] | IC50 (NCI-H1975) | IC50 [3] |
| --- | --- | --- | --- | --- | --- | --- | --- | --- | --- | --- | --- |
| O=C1CCC(N2Cc3cc(CN4CCC(c5cccs5)CC4)ccc3C2=O)C(=O)N1 (stereo not shown) [GT-04571, 3-(1-oxo-5-((4-(thiophen-2-yl)piperidin-1-yl)methyl)isoindolin-2-yl)piperidine-2,6-dione] | A (0% ≤ substrate protein remaining % ≤ 80%) | A (0% ≤ substrate protein remaining % ≤ 80%) | A (0% ≤ substrate protein remaining % ≤ 80%) | A (0% ≤ substrate protein remaining % ≤ 80%) | A (0% ≤ substrate protein remaining % ≤ 80%) | A (0% ≤ substrate protein remaining % ≤ 80%) | 1000 to 1500 nM | 100 to 500 nM | 5 to 10 nM | 50 to 100 nM | 10 to 50 nM |
| O=C1CCC(N2Cc3cc(CN4C[C@H]5C[C@@H]4CN5c4cccc(Cl)c4Cl)ccc3C2=O)C(=O)N1 (stereo partly drawn) [GT-04724, 3-(5-(((1R,4R)-5-(2,3-dichlorophenyl)-2,5-diazabicyclo[2.2.1]heptan-2-yl)methyl)-1-oxoisoindolin-2-yl)piperidine-2,6-dione] | A (0% ≤ substrate protein remaining % ≤ 80%) | A (0% ≤ substrate protein remaining % ≤ 80%) | A (0% ≤ substrate protein remaining % ≤ 80%) | A (0% ≤ substrate protein remaining % ≤ 80%) | A (0% ≤ substrate protein remaining % ≤ 80%) | A (0% ≤ substrate protein remaining % ≤ 80%) | < 500 nM | 50 to 100 nM | 5 to 10 nM | 50 to 100 nM | 10 to 50 nM |
| O=C1CCC(N2Cc3cc(CN4CC=C(c5ncc6ccsc6n5)CC4)ccc3C2=O)C(=O)N1 (stereo not shown) [GT-04708, 3-(1-oxo-5-((4-(thieno[2,3-d]pyrimidin-2-yl)-3,6-dihydropyridin-1(2H)-yl)methyl)isoindolin-2-yl)piperidine-2,6-dione] | A (0% ≤ substrate protein remaining % ≤ 80%) | B (80%< substrate protein remaining %≤ 100%) | B (80%< substrate protein remaining %≤ 100%) | B (80%< substrate protein remaining %≤ 100%) | A (0% ≤ substrate protein remaining % ≤ 80%) | A (0% ≤ substrate protein remaining % ≤ 80%) | 500 to 1000 nM | 10 to 50 nM | 1 to 5 nM | 10 to 50 nM | 5 to 10 nM |
| O=C1CCC(N2Cc3cc(CN4CCC(N5CCc6cc(F)ccc65)CC4)ccc3C2=O)C(=O)N1 (stereo not shown) [GT-04650, 3-(5-((4-(5-fluoroindolin-1-yl)piperidin-1-yl)methyl)-1-oxoisoindolin-2-yl)piperidine-2,6-dione] | A (0% ≤ substrate protein remaining % ≤ 80%) | A (0% ≤ substrate protein remaining % ≤ 80%) | A (0% ≤ substrate protein remaining % ≤ 80%) | A (0% ≤ substrate protein remaining % ≤ 80%) | B (80%< substrate protein remaining %≤ 100%) | A (0% ≤ substrate protein remaining % ≤ 80%) | < 500 nM | 100 to 500 nM | 10 to 50 nM | 50 to 100 nM | 50 to 100 nM |
| O=C1CCC(N2Cc3cc(CN4CC=C(c5ccsc5)CC4)ccc3C2=O)C(=O)N1 (stereo not shown) [GT-04585, 3-(1-oxo-5-((4-(thiophen-3-yl)-3,6-dihydropyridin-1(2H)-yl)methyl)isoindolin-2-yl)piperidine-2,6-dione] | A (0% ≤ substrate protein remaining % ≤ 80%) | A (0% ≤ substrate protein remaining % ≤ 80%) | A (0% ≤ substrate protein remaining % ≤ 80%) | A (0% ≤ substrate protein remaining % ≤ 80%) | A (0% ≤ substrate protein remaining % ≤ 80%) | A (0% ≤ substrate protein remaining % ≤ 80%) | < 500 nM | 10 to 50 nM | 1 to 5 nM | 10 to 50 nM | 5 to 10 nM |
| O=C1CCC(N2Cc3cc(CN4CCN(c5nccc(Cl)c5Br)CC4)ccc3C2=O)C(=O)N1 (stereo not shown) [GT-04615, 3-(5-((4-(3-bromo-4-chloropyridin-2-yl)piperazin-1-yl)methyl)-1-oxoisoindolin-2-yl)piperidine-2,6-dione] | A (0% ≤ substrate protein remaining % ≤ 80%) | A (0% ≤ substrate protein remaining % ≤ 80%) | A (0% ≤ substrate protein remaining % ≤ 80%) | A (0% ≤ substrate protein remaining % ≤ 80%) | A (0% ≤ substrate protein remaining % ≤ 80%) | A (0% ≤ substrate protein remaining % ≤ 80%) | 500 to 1000 nM | 500 to 1000 nM | 10 to 50 nM | 100 to 500 nM | 100 to 500 nM |
| O=C1CCC(N2Cc3cc(CN4CC=C(c5cncc(Cl)c5)CC4)ccc3C2=O)C(=O)N1 (stereo not shown) [GT-04620, 3-(5-((5-chloro-3',6'-dihydro-[3,4'-bipyridin]-1'(2'H)-yl)methyl)-1-oxoisoindolin-2-yl)piperidine-2,6-dione] | A (0% ≤ substrate protein remaining % ≤ 80%) | A (0% ≤ substrate protein remaining % ≤ 80%) | A (0% ≤ substrate protein remaining % ≤ 80%) | A (0% ≤ substrate protein remaining % ≤ 80%) | B (80%< substrate protein remaining %≤ 100%) | A (0% ≤ substrate protein remaining % ≤ 80%) | 500 to 1000 nM | 10 to 50 nM | 1 to 5 nM | 10 to 50 nM | 10 to 50 nM |
| Cc1cc(C2=CCN(Cc3ccc4c(c3)CN(C3CCC(=O)NC3=O)C4=O)CC2)cs1 (stereo not shown) [GT-04587, 3-(5-((4-(5-methylthiophen-3-yl)-3,6-dihydropyridin-1(2H)-yl)methyl)-1-oxoisoindolin-2-yl)piperidine-2,6-dione] | A (0% ≤ substrate protein remaining % ≤ 80%) | A (0% ≤ substrate protein remaining % ≤ 80%) | A (0% ≤ substrate protein remaining % ≤ 80%) | A (0% ≤ substrate protein remaining % ≤ 80%) | B (80%< substrate protein remaining %≤ 100%) | A (0% ≤ substrate protein remaining % ≤ 80%) | 500 to 1000 nM | 10 to 50 nM | 1 to 5 nM | 5 to 10 nM | 1 to 5 nM |

— patent EP4745137A1 (Gluetacs Therapeutics (Shanghai) Co., Ltd., priority 2023, dated 2025)
